Where two headings read alike, the source gives them in different places. Where a SMILES comes first, the peptide text is derived from it.
Tests used:
[1] = system: A. baumannii; experiment: MIC of antibiotic during combined treatment with antimicrobial peptide; assay type: cell-based, Acinetobacter baumannii; conditions: A. baumannii
Outline: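 Antibiotic diluted in MH medium, dispensed per well with peptide; setup repeated with roles reversed; MIC read per combination.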

[2] = system: E. coli; assay type: cell-based, Escherichia coli; conditions: E. coli
Outline: (§1)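 Antibiotic MIC came from antibiotic dilutions added to bacteria (2×10^6 CFU/ml, MH medium) already combined with peptide serially diluted 2:1 from its own MIC. Swapping the roles of the two agents gave the peptide MIC.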

[3] = system: MDREC 1229; assay type: cell-based, Escherichia coli
Outline: as §1

[4] = system: A. baumannii; experiment: MIC of antimicrobial peptide during combined treatment with antibiotic; assay type: cell-based, Acinetobacter baumannii
Outline: as §1

[5] = system: MDRAB 12035; experiment: as above; assay type: cell-based, Acinetobacter baumannii
Outline: as §1

[6] = combined with peptide at 2 μg/ml
[7] = combined with peptide at 4 μg/ml
[8] = combined with peptide at 6 μg/ml
[9] = combined with peptide at 8 μg/ml
[10] = combined with peptide at 16 μg/ml
[11] = combined with peptide at 32 μg/ml
[12] = combined with peptide at 64 μg/ml
[13] = linezolid 64 μg/ml (Conc./MIC 1/8)
[14] = linezolid 512 μg/ml (Conc./MIC 1)
[15] = vancomycin 512 μg/ml (Conc./MIC 1/2)
[16] = vancomycin 1024 μg/ml (Conc./MIC 1)
[17] = erythromycin 4 μg/ml (Conc./MIC 1/8)
[18] = erythromycin 8 μg/ml (Conc./MIC 1/4)
[19] = erythromycin 16 μg/ml (Conc./MIC 1/2)
[20] = erythromycin 32 μg/ml (Conc./MIC 1)

CC[C@H](C)[C@H](NC(=O)[C@H](CCCCN)NC(=O)[C@H](Cc1c[nH]c2ccccc12)NC(=O)[C@@H](N)CCCNC(=N)N)C(=O)N[C@@H](Cc1ccccc1)C(=O)N[C@@H](CCCCN)C(=O)N[C@@H](CCCCN)C(=O)N[C@H](C(=O)N1CCC[C@H]1C(=O)N[C@@H](CCCCN)C(=O)N[C@@H](Cc1ccccc1)C(=O)N[C@@H](CC(C)C)C(=O)N[C@@H](Cc1c[nH]cn1)C(=O)N[C@@H](CCC(=O)O)C(=O)N[C@@H](C)C(=O)N[C@@H](CCCCN)C(=O)N[C@@H](CCCCN)C(=O)N[C@@H](Cc1ccccc1)C(N)=O)[C@@H](C)CC [PapMA-11, RWK IFK KIP KFL HEA KKF-NH2] (H-RWKIFKKIPKFLHEAKKF-NH2; N-terminus assumed)
0 µg/mL: Antibiotic MIC, Erythromycin [1, 12] | Antibiotic MIC, Linezolid [1, 12] | Antibiotic MIC, Vancomycin [1, 12] | Peptide MIC ([2]; with Erythromycin […] (Conc./MIC 1)) | Peptide MIC ([2]; with Linezolid […] (Conc./MIC 1)) | Peptide MIC ([2]; with Vancomycin 1024 μg/ml (Conc./MIC 1)) | Peptide MIC during treatment with antibiotic ([3]; erythromycin […] (Conc./MIC 1)) | Peptide MIC during treatment with antibiotic [3, 14] | Peptide MIC during treatment with antibiotic [4, 20] | Peptide MIC during treatment with antibiotic ([4]; linezolid […] (Conc./MIC 1)) | Peptide MIC during treatment with antibiotic [4, 16] | Peptide MIC during treatment with erythromycin [5, 20] | Peptide MIC during treatment with linezolid [5, 14]
8 µg/mL: Antibiotic MIC, Vancomycin [1, 9] | Antibiotic MIC, Linezolid [1, 10] | Peptide MIC during treatment with antibiotic [3, 13] | Peptide MIC during treatment with antibiotic ([3]; vancomycin […] (Conc./MIC 1/8)) | Peptide MIC during treatment with antibiotic ([4]; linezolid 32 μg/ml (Conc./MIC 1/8))
128 µg/mL: Antibiotic MIC, Linezolid [1, 6] | Antibiotic MIC, Vancomycin [1, 6]
16 µg/mL: Antibiotic MIC, Erythromycin [1, 6] | Antibiotic MIC, Vancomycin [1, 8] | Antibiotic MIC, Linezolid [1, 9]
0.25 µg/mL: Antibiotic MIC, Erythromycin [1, 10] | Peptide MIC during treatment with antibiotic [4, 15]
32 µg/mL: Antibiotic MIC, Vancomycin [1, 7] | Antibiotic MIC, Linezolid [1, 8]
1 µg/mL: Antibiotic MIC, Erythromycin [1, 8] | Antibiotic MIC, Vancomycin [1, 11] | Peptide MIC during treatment with antibiotic ([3]; erythromycin […] (Conc./MIC 1/2)) | Peptide MIC during treatment with antibiotic [3, 16] | Peptide MIC during treatment with vancomycin [5, 15] | Peptide MIC during treatment with vancomycin [5, 16]
4 µg/mL: Antibiotic MIC, Erythromycin [1, 7] | Antibiotic MIC, Vancomycin [1, 10] | Peptide MIC during treatment with antibiotic ([3]; erythromycin 32 μg/ml (Conc./MIC 1/8)) | Peptide MIC during treatment with antibiotic ([3]; linezolid […] (Conc./MIC 1/4)) | Peptide MIC during treatment with antibiotic ([3]; vancomycin […] (Conc./MIC 1/4)) | Peptide MIC during treatment with antibiotic [4, 17] | Peptide MIC during treatment with antibiotic [4, 18] | Peptide MIC during treatment with antibiotic ([4]; linezolid 64 μg/ml (Conc./MIC 1/4)) | Peptide MIC during treatment with erythromycin [5, 17] | Peptide MIC during treatment with erythromycin [5, 18] | Peptide MIC during treatment with linezolid [5, 13]
0.5 µg/mL: Antibiotic MIC, Erythromycin [1, 9] | Peptide MIC during treatment with antibiotic ([4]; vancomycin […] (Conc./MIC 1/4))
0.125 µg/mL: Antibiotic MIC, Erythromycin [1, 11]
2 µg/mL: Antibiotic MIC, Linezolid [1, 11] | Peptide MIC during treatment with antibiotic ([3]; erythromycin 64 μg/ml (Conc./MIC 1/4)) | Peptide MIC during treatment with antibiotic ([3]; linezolid […] (Conc./MIC 1/2)) | Peptide MIC during treatment with antibiotic [3, 15] | Peptide MIC during treatment with antibiotic [4, 19] | Peptide MIC during treatment with antibiotic ([4]; linezolid […] (Conc./MIC 1/2)) | Peptide MIC during treatment with antibiotic ([4]; vancomycin […] (Conc./MIC 1/8)) | Peptide MIC during treatment with erythromycin [5, 19] | Peptide MIC during treatment with linezolid ([5]; linezolid […] (Conc./MIC 1/2)) | Peptide MIC during treatment with linezolid ([5]; linezolid […] (Conc./MIC 1/4)) | Peptide MIC during treatment with vancomycin ([5]; vancomycin […] (Conc./MIC 1/4)) | Peptide MIC during treatment with vancomycin ([5]; vancomycin […] (Conc./MIC 1/8))
64 µg/mL: Antibiotic MIC, Linezolid [1, 7]

Reference: patent US11214594B2, “Antimicrobial peptide having synergistic antibacterial effect with antibiotics on multidrug resistant bacteria, and use thereof” (priority 2016, dated 2022)
